# Earlier results in paper PMC9299415 (Molecular Neurobiology, 2022).
# What was measured:
# SARS-CoV-2 = details: rhesus macaque model, ref [18]
smiles,measurement,setting,value
"Oc1ccc2[nH]ccc2c1 [5-HI, 5-hydroxyindole]",potentiation efficacy compared with PNU-120596,α7 nAChR,lower efficacy than PNU-120596
same,recovery of receptors from desensitization,α7 nAChR,does not produce significant recovery of receptors from desensitization
"CCN1C[C@]2(COC(=O)c3ccccc3N3C(=O)C[C@H](C)C3=O)CC[C@H](OC)[C@@]34[C@@H]5C[C@H]6[C@H](OC)[C@@H]5[C@](O)(C[C@@H]6OC)[C@@](O)([C@@H](OC)[C@H]23)[C@@H]14 [MLA, methyllycaconitine]",agonist/antagonist type at α7,α7 nAChR,reversible competitive α7 antagonist
"COc1cc(OC)c(NC(=O)Nc2cc(C)on2)cc1Cl [PNU-120596, N-(5-Chloro-2,4-dimethoxyphenyl)-N’-(5-methyl-3-isoxazolyl)-urea]",channel activation by PNU-120596 by itself,α7 nAChR,cannot induce channel activation
c1cnc2cc3c(cc2n1)[C@@H]1CNC[C@H]3C1 [varenicline],agonist/antagonist type at α7,α7 nAChR,full agonist
same,infectivity and disease progression,SARS-CoV-2,reduces infectivity and disease progression
